Numbers after ± are expanded uncertainties.
Test: xn = mol fraction of the nth substance listed
Settings: 101 kPa, Liquid; for mass density: Vibrating tube method; for viscosity: Falling or rolling sphere viscometry

`CCCC[n+]1ccc(C)cc1.O=S(=O)([N-]S(=O)(=O)C(F)(F)F)C(F)(F)F` + CCCC[n+]1ccccc1.F[B-](F)(F)F gave a mass density (323.15 K, x2 = 0) of 1388.8 ± 1.7 kg/m3, a mass density (323.15 K, x2 = 0.0575) of 1381.9 ± 1.7 kg/m3 and a mass density (323.15 K, x2 = 0.1136) of 1374.7 ± 1.7 kg/m3. For the same compound, the mass density (323.15 K, x2 = 0.2311) was 1358.6 ± 1.7 kg/m3, the mass density (323.15 K, x2 = 0.3515) was 1340.3 ± 1.7 kg/m3 and the mass density (323.15 K, x2 = 0.4566) was 1322.8 ± 1.7 kg/m3. The mass density (323.15 K, x2 = 0.5692) was 1302 ± 1.7 kg/m3, the mass density (323.15 K, x2 = 0.673) was 1280.5 ± 1.7 kg/m3 and the mass density (323.15 K, x2 = 0.7836) was 1255 ± 1.7 kg/m3. The mass density (323.15 K, x2 = 0.889) was 1227.6 ± 1.7 kg/m3, the mass density (323.15 K, x2 = 0.9535) was 1209.3 ± 1.7 kg/m3 and the viscosity (333.15 K, x2 = 0) was 16.1 ± 0.4 mPa·s. The viscosity (333.15 K, x2 = 0.0575) was 16.8 ± 0.4 mPa·s, the viscosity (333.15 K, x2 = 0.1136) was 17.5 ± 0.5 mPa·s and the viscosity (333.15 K, x2 = 0.2311) was 19.5 ± 0.5 mPa·s. The viscosity (333.15 K, x2 = 0.3515) was 21.6 ± 0.6 mPa·s, the viscosity (333.15 K, x2 = 0.4566) was 23.3 ± 0.6 mPa·s and the viscosity (333.15 K, x2 = 0.5692) was 25.2 ± 0.6 mPa·s. It also gave a viscosity (333.15 K, x2 = 0.673) of 27 ± 0.7 mPa·s, a viscosity (333.15 K, x2 = 0.7836) of 28.9 ± 0.7 mPa·s and a viscosity (333.15 K, x2 = 0.889) of 30.8 ± 0.8 mPa·s. For the same compound, the viscosity (333.15 K, x2 = 0.9535) was 32.2 ± 0.8 mPa·s, the mass density (333.15 K, x2 = 0) was 1379.7 ± 1.7 kg/m3 and the mass density (333.15 K, x2 = 0.0575) was 1372.8 ± 1.7 kg/m3. For the same compound, the mass density (333.15 K, x2 = 0.1136) was 1365.8 ± 1.7 kg/m3, the mass density (333.15 K, x2 = 0.2311) was 1349.8 ± 1.7 kg/m3 and the mass density (333.15 K, x2 = 0.3515) was 1331.8 ± 1.7 kg/m3. The mass density (333.15 K, x2 = 0.4566) was 1314.5 ± 1.7 kg/m3, the mass density (333.15 K, x2 = 0.5692) was 1294 ± 1.7 kg/m3 and the mass density (333.15 K, x2 = 0.673) was 1272.8 ± 1.7 kg/m3. For the same compound, the mass density (333.15 K, x2 = 0.7836) was 1247.6 ± 1.7 kg/m3, the mass density (333.15 K, x2 = 0.889) was 1220.5 ± 1.7 kg/m3 and the mass density (333.15 K, x2 = 0.9535) was 1202.4 ± 1.7 kg/m3. For the same compound, the viscosity (343.15 K, x2 = 0) was 12.3 ± 0.3 mPa·s, the viscosity (343.15 K, x2 = 0.0575) was 12.8 ± 0.3 mPa·s and the viscosity (343.15 K, x2 = 0.1136) was 13.3 ± 0.3 mPa·s. For the same compound, the viscosity (343.15 K, x2 = 0.2311) was 14.6 ± 0.4 mPa·s, the viscosity (343.15 K, x2 = 0.3515) was 16 ± 0.4 mPa·s and the viscosity (343.15 K, x2 = 0.4566) was 17.2 ± 0.4 mPa·s. For the same compound, the viscosity (343.15 K, x2 = 0.5692) was 18.5 ± 0.5 mPa·s, the viscosity (343.15 K, x2 = 0.673) was 19.7 ± 0.5 mPa·s and the viscosity (343.15 K, x2 = 0.7836) was 20.9 ± 0.5 mPa·s. The viscosity (343.15 K, x2 = 0.889) was 22.1 ± 0.6 mPa·s, the viscosity (343.15 K, x2 = 0.9535) was 23 ± 0.6 mPa·s and the mass density (343.15 K, x2 = 0) was 1370.5 ± 1.7 kg/m3. It also gave a mass density (343.15 K, x2 = 0.0575) of 1363.8 ± 1.7 kg/m3, a mass density (343.15 K, x2 = 0.1136) of 1356.9 ± 1.7 kg/m3 and a mass density (343.15 K, x2 = 0.2311) of 1341.1 ± 1.7 kg/m3. The mass density (343.15 K, x2 = 0.3515) was 1323.3 ± 1.7 kg/m3, the mass density (343.15 K, x2 = 0.4566) was 1306.3 ± 1.7 kg/m3 and the mass density (343.15 K, x2 = 0.5692) was 1286 ± 1.7 kg/m3. The mass density (343.15 K, x2 = 0.673) was 1265.1 ± 1.7 kg/m3, the mass density (343.15 K, x2 = 0.7836) was 1240.2 ± 1.7 kg/m3 and the mass density (343.15 K, x2 = 0.889) was 1213.4 ± 1.7 kg/m3. For the same compound, the mass density (343.15 K, x2 = 0.9535) was 1195.6 ± 1.7 kg/m3, the viscosity (353.15 K, x2 = 0) was 9.8 ± 0.3 mPa·s and the viscosity (353.15 K, x2 = 0.0575) was 10.1 ± 0.3 mPa·s. For the same compound, the viscosity (353.15 K, x2 = 0.1136) was 10.5 ± 0.3 mPa·s, the viscosity (353.15 K, x2 = 0.2311) was 11.4 ± 0.3 mPa·s and the viscosity (353.15 K, x2 = 0.3515) was 12.4 ± 0.3 mPa·s. The viscosity (353.15 K, x2 = 0.4566) was 13.3 ± 0.3 mPa·s, the viscosity (353.15 K, x2 = 0.5692) was 14.1 ± 0.4 mPa·s and the viscosity (353.15 K, x2 = 0.673) was 14.9 ± 0.4 mPa·s. It also gave a viscosity (353.15 K, x2 = 0.7836) of 15.8 ± 0.4 mPa·s, a viscosity (353.15 K, x2 = 0.889) of 16.6 ± 0.4 mPa·s and a viscosity (353.15 K, x2 = 0.9535) of 17.2 ± 0.4 mPa·s. For the same compound, the mass density (353.15 K, x2 = 0) was 1361.5 ± 1.7 kg/m3, the mass density (353.15 K, x2 = 0.0575) was 1354.9 ± 1.7 kg/m3 and the mass density (353.15 K, x2 = 0.1136) was 1348 ± 1.7 kg/m3. For the same compound, the mass density (353.15 K, x2 = 0.2311) was 1332.5 ± 1.7 kg/m3, the mass density (353.15 K, x2 = 0.3515) was 1314.9 ± 1.7 kg/m3 and the mass density (353.15 K, x2 = 0.4566) was 1298.1 ± 1.7 kg/m3. For the same compound, the mass density (353.15 K, x2 = 0.5692) was 1278.1 ± 1.7 kg/m3, the mass density (353.15 K, x2 = 0.673) was 1257.5 ± 1.7 kg/m3 and the mass density (353.15 K, x2 = 0.7836) was 1232.8 ± 1.7 kg/m3. The mass density (353.15 K, x2 = 0.889) was 1206.3 ± 1.7 kg/m3 and the mass density (353.15 K, x2 = 0.9535) was 1188.8 ± 1.7 kg/m3.

Reference: the NIST ThermoML archive (doi:10.1021/je300972a)
